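Compound exposure: 48 hours, 5 concentrations, 96-well plates. GI50 is the concentration that inhibits growth by half.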 Active and inactive are the calls of the source. No stated cut-off is given here; in the data, active = GI50 up to about 1.1 µM and inactive = higher. Residues, ends and D or L forms follow the SMILES beside them. *: point of attachment. Boc = CC(C)(C)OC(=O)*; OBn = c1ccc(CO*)cc1

Some test systems named below: MDA-MB-231; OVCAR-3; OVCAR-4; SK-MEL-28; M14; Malme-3M; PC-3; HOP-62; HCT-15; ACHN; MDA-N; NCI-H522; SF-539; IGROV-1; CAKI-1; SW-620; KM12; NCI-H226; SR; HOP-92.
Assay in all cases: growth of human tumour cells (NCI), 48 h

For the compound `CC(C)C(NC(=O)C(Cc1ccccc1)NC(=O)OC(C)(C)C)C(=O)NCC(=O)OCc1ccccc1` (stereo not drawn) (Boc-Phe-Val-Gly-OBn; configuration not given here), the GI50 is 16.6 µM (inactive) in the assay on MDA-MB-231; 14.4 µM (inactive) in the assay on OVCAR-3; 3.87 µM (inactive) with OVCAR-4; 16.3 µM (inactive) with SK-MEL-28; 20.9 µM (inactive) in the assay with M14; 18.5 µM (inactive) with Malme-3M. The GI50 in the assay with PC-3 is 15.7 µM (inactive); in the assay with HOP-62, 19.2 µM (inactive); with HCT-15 it was 12.9 µM; with ACHN it was 17.5 µM (inactive); in the assay with MDA-N, 19.4 µM (inactive); with NCI-H522, 6.55 µM (inactive). Further, the GI50 in the assay with SF-539 was 25.3 µM (inactive); with IGROV-1, 14.7 µM (inactive); in the assay on CAKI-1 it was 18.8 µM (inactive); in the assay on SW-620, 14.3 µM (inactive).
In the case of `COc1cc2c(c(OC)c1OC)C(=O)[C@H](O)[C@H]2NC(N)=O`, the GI50 in the assay on MDA-MB-231 was 86.3 µM (inactive); in the assay with OVCAR-3, 82 µM (inactive); in the assay on SK-MEL-28, > 100 µM (inactive); with M14 it was 47.6 µM (inactive); in the assay with KM12 it was > 100 µM (inactive); in the assay on Malme-3M, > 100 µM (inactive). The GI50 was > 100 µM (inactive) with PC-3; > 100 µM (inactive) in the assay on HOP-62; > 100 µM (inactive) in the assay on NCI-H226; 27.7 µM in the assay on HCT-15; 34.1 µM (inactive) in the assay on ACHN; > 100 µM (inactive) in the assay on MDA-N. Also, the GI50 is > 100 µM (inactive) in the assay with NCI-H522; > 100 µM (inactive) in the assay with SF-539; 49.5 µM (inactive) with IGROV-1; 90.6 µM (inactive) in the assay with CAKI-1; > 100 µM (inactive) in the assay on SW-620.
`CC1=C(C(N)=O)C(c2ccncc2)C(C#N)C(=O)N1` (stereo unspecified): the GI50 with MDA-MB-231, in the assay on OVCAR-4, with SK-MEL-28, in the assay with M14, in the assay on SR and in the assay with KM12 was > 100 µM (inactive) each time. Also, the GI50 with PC-3 was > 100 µM (inactive); in the assay with HOP-62, > 100 µM (inactive); in the assay on HCT-15 it was above 100 µM; in the assay on ACHN, > 100 µM (inactive); in the assay with SF-539, > 100 µM (inactive); in the assay with IGROV-1 it was > 100 µM (inactive). Further, the GI50 in the assay on CAKI-1, in the assay on SW-620 and with HOP-92 was > 100 µM (inactive) throughout.
Regarding `Cc1ccc(-c2nnc(CCCCCCCCc3nnc(-c4ccc(C)cc4O)n3N)n2N)c(O)c1`, the GI50 in the assay on MDA-MB-231, in the assay on OVCAR-3, in the assay on OVCAR-4, with SK-MEL-28, in the assay with M14 and in the assay on SR was > 100 µM (inactive) throughout. The GI50 in the assay with KM12 was > 100 µM (inactive); in the assay with Malme-3M, > 100 µM (inactive); with HCT-15, above 100 µM; in the assay with ACHN it was > 100 µM (inactive); with MDA-N, > 100 µM (inactive); in the assay on NCI-H522 it was > 100 µM (inactive). In addition, the GI50 in the assay on SF-539 was > 100 µM (inactive); with IGROV-1, > 100 µM (inactive); in the assay with CAKI-1, > 100 µM (inactive); with SW-620 it was > 100 µM (inactive); in the assay with HOP-92, 9.71 µM (inactive).
Consider `COc1ccc2c(c1)nc1n2C(c2c(F)cccc2Cl)SC1` (stereo unspecified), for which the GI50 with MDA-MB-231 is 3.49 µM (inactive); with SK-MEL-28, 5 µM (inactive); in the assay on M14, 3.9 µM (inactive); with KM12, 2.76 µM (inactive); in the assay on Malme-3M, 1.02 µM (active); in the assay on NCI-H226, 4.75 µM (inactive). The GI50 was 3.03 µM in the assay on HCT-15; 20.8 µM (inactive) in the assay with ACHN; 1.35 µM (inactive) in the assay on MDA-N; 3.25 µM (inactive) with SF-539; 6.17 µM (inactive) in the assay with IGROV-1; 19.1 µM (inactive) in the assay on CAKI-1. Also, in the assay on HOP-92, the GI50 was > 37.3 µM (inactive).
Turning to `CC(C)=Nn1cnc(C(=N)C#N)c1N`, the GI50 in the assay with OVCAR-3, in the assay on OVCAR-4, with SK-MEL-28, in the assay on M14, with SR and with Malme-3M was > 100 µM (inactive) throughout. The GI50 in the assay on PC-3 was > 100 µM (inactive); in the assay with HOP-62, > 100 µM (inactive); in the assay on NCI-H226 it was > 100 µM (inactive); in the assay with HCT-15, above 100 µM; in the assay on ACHN, > 100 µM (inactive); in the assay with MDA-N, > 100 µM (inactive). The GI50 with NCI-H522, in the assay with SF-539, in the assay with IGROV-1, in the assay on CAKI-1 and with SW-620 was > 100 µM (inactive) each time.
Consider `CN1C(=O)C(/C=N/NC(=O)c2cccnc2)C(N)N(C)C1=O` (stereo unspecified), for which the GI50 in the assay with MDA-MB-231, with OVCAR-3, in the assay on OVCAR-4, with SK-MEL-28, with M14 and in the assay with KM12 was > 100 µM (inactive) in each case. In addition, the GI50 is > 100 µM (inactive) with Malme-3M; > 100 µM (inactive) with PC-3; > 100 µM (inactive) with HOP-62; > 100 µM (inactive) with NCI-H226; above 100 µM in the assay on HCT-15; > 100 µM (inactive) in the assay on ACHN. Besides, the GI50 in the assay on MDA-N, in the assay with NCI-H522, in the assay with IGROV-1, in the assay with CAKI-1 and in the assay on SW-620 was > 100 µM (inactive) throughout.
Take `O=C(c1ccc([N+](=O)[O-])cc1)C(Br)C(Br)c1ccnc2ccccc12` (stereo unspecified): the GI50 in the assay on MDA-MB-231 is 13.1 µM (inactive); with OVCAR-3, 6.32 µM (inactive); in the assay with OVCAR-4, 11.7 µM (inactive); in the assay with SK-MEL-28 it was 11.1 µM (inactive); with M14 it was 2.8 µM (inactive); in the assay with SR, 2.24 µM (inactive). Besides, the GI50 in the assay with KM12 is 1.91 µM (inactive); with Malme-3M, 12.5 µM (inactive); in the assay with PC-3 it was 7.29 µM (inactive); with HOP-62, 13.9 µM (inactive); in the assay on NCI-H226, 10.9 µM (inactive); in the assay with HCT-15, 6.76 µM. Moreover, the GI50 with ACHN is 4.61 µM (inactive); in the assay on NCI-H522 it was 1.86 µM (inactive); in the assay with SF-539 it was 6.4 µM (inactive); in the assay with IGROV-1 it was 13.7 µM (inactive); with CAKI-1, 12.2 µM (inactive); in the assay on SW-620, 2.09 µM (inactive). The GI50 in the assay on HOP-92 was 13.8 µM (inactive).
On to `O=C1CCC(Cc2ccc(Cl)cc2Cl)C(=O)N1` (stereo unspecified), for which the GI50 in the assay with MDA-MB-231 is 51.8 µM (inactive); in the assay with OVCAR-3, > 100 µM (inactive); with OVCAR-4, > 100 µM (inactive); in the assay on SK-MEL-28, > 100 µM (inactive); in the assay with M14, > 100 µM (inactive); in the assay with SR, > 100 µM (inactive). The GI50 is > 100 µM (inactive) with Malme-3M; > 100 µM (inactive) in the assay with PC-3; > 100 µM (inactive) with HOP-62; > 100 µM (inactive) in the assay on NCI-H226; 82.8 µM with HCT-15; > 100 µM (inactive) in the assay with ACHN. Moreover, the GI50 is 66.7 µM (inactive) with NCI-H522; > 100 µM (inactive) in the assay with SF-539; > 100 µM (inactive) in the assay with IGROV-1; > 100 µM (inactive) with CAKI-1; > 100 µM (inactive) in the assay on SW-620; > 100 µM (inactive) with HOP-92.
As to `CC(=O)c1sc(Nc2ccc(Cl)c(Cl)c2)nc1C`, the GI50 is 21 µM (inactive) with MDA-MB-231; 29.8 µM (inactive) in the assay on OVCAR-3; > 100 µM (inactive) in the assay on OVCAR-4; > 100 µM (inactive) in the assay with SK-MEL-28; 60.3 µM (inactive) in the assay with SR; 65.2 µM (inactive) with KM12. Moreover, the GI50 was > 100 µM (inactive) in the assay on Malme-3M; 69.2 µM (inactive) in the assay with HOP-62; 78 µM (inactive) with NCI-H226; 93.8 µM in the assay with HCT-15; 70.6 µM (inactive) in the assay with ACHN; > 100 µM (inactive) with MDA-N. The GI50 with SF-539 is > 100 µM (inactive); in the assay on IGROV-1, > 100 µM (inactive); in the assay with CAKI-1, 74.3 µM (inactive); with SW-620, > 100 µM (inactive).
For `CSC(=S)NN=C1CCCCC1`, the GI50 was 17.6 µM (inactive) in the assay with MDA-MB-231; 22.3 µM (inactive) with OVCAR-3; 34.3 µM (inactive) in the assay with OVCAR-4; 37.8 µM (inactive) in the assay on SK-MEL-28; 13.6 µM (inactive) in the assay on M14; 28.7 µM (inactive) in the assay with KM12. In addition, the GI50 in the assay on Malme-3M is 14.6 µM (inactive); with PC-3, 30.8 µM (inactive); with HOP-62, 47.3 µM (inactive); in the assay with NCI-H226, 13.9 µM (inactive); with HCT-15, 29.9 µM; in the assay with ACHN it was 21 µM (inactive). The GI50 with NCI-H522 is 24.8 µM (inactive); in the assay with SF-539, 24.4 µM (inactive); in the assay on IGROV-1, 12.7 µM (inactive); with CAKI-1 it was 20.1 µM (inactive); with SW-620, 48.2 µM (inactive); in the assay on HOP-92 it was > 100 µM (inactive).
On to `CCOC(=O)C1=C(C)NC(=O)NC1c1ccc(N(CCCl)CCCl)cc1Cl` (stereo unspecified), for which the GI50 in the assay on MDA-MB-231 is 13.6 µM (inactive); in the assay with OVCAR-3 it was 15.5 µM (inactive); with OVCAR-4, 17.2 µM (inactive); in the assay on SK-MEL-28, 17.6 µM (inactive); in the assay on M14 it was 15.8 µM (inactive); with KM12, 19.7 µM (inactive). Moreover, the GI50 was 14.9 µM (inactive) in the assay with Malme-3M; 15.2 µM (inactive) in the assay with PC-3; 15.2 µM (inactive) in the assay with HOP-62; 15.2 µM (inactive) in the assay with NCI-H226; 17.1 µM with HCT-15; 14.5 µM (inactive) with ACHN. In addition, the GI50 with NCI-H522 was 13.6 µM (inactive); in the assay on SF-539 it was 17.2 µM (inactive); in the assay on IGROV-1, 15.1 µM (inactive); with CAKI-1, 17.2 µM (inactive); in the assay with SW-620, 17.9 µM (inactive); with HOP-92 it was 13 µM (inactive).
